These results are taken from patent US9079974B2, “GH-RH analogs with potent agonistic effects” (The University of Miami, priority 2011, dated 2015).

The target of experiment [1] is T1, GHRH receptor (Homo sapiens, UniProt Q02643).
T1 construct: Normal human pituitaries were purchased from the National Hormone and Peptide Program; tissue National Hormone and Peptide Program (A. F. Parlow); host or cells: normal human pituitary, membrane fraction
T1 sequence (Q02643 23-423): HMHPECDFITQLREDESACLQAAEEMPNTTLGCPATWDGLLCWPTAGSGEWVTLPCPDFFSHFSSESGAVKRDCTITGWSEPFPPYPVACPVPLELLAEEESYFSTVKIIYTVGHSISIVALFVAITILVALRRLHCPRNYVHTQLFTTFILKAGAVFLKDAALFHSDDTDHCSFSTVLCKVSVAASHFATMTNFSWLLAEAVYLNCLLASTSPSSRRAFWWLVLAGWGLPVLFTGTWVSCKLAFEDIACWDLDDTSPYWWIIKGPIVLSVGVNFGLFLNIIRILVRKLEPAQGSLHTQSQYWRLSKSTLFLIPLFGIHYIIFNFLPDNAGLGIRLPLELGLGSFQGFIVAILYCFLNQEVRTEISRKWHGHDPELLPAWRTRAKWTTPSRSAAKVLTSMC
Briefly: GHRH receptor binding, [His1,125I-Tyr10,Nle27]hGHRH(1-32)NH2 ligand competition, human pituitary membrane homogenates (Table 6). The settings on record: [His1,125I-Tyr10,Nle27]hGHRH(1-32)NH2, human pituitary membranes. Here is the method: Receptor binding assay Ligand competition assay with ^125I-labeled [His^1, Nle^27]hGH-RH(1-32)-NH2 was used to determine the binding affinities of the novel hGH-RH agonists to membrane receptors of rat anterior pituitary cells. The methods used have been described in detail (Halmos G, et al. Receptor 3: 87-97, 1993), here by incorporated by reference. Briefly, radioidonated [His^1, Nle^27]hGH-RH(1-32)-NH2 is prepared by the chloramines-T method. […] IC50 is the dose of the tested peptides causing 50% inhibition of specific binding to receptors.
Preparation of human pituitary membrane fraction and receptor binding of GHRH agonists were performed as previously described, by using a sensitive in vitro ligand competition assay based on binding of ^125I-labeled [His^1, Nle^27]hGHRH(1-32)NH2 to human pituitary membrane homogenates. Normal human pituitaries were purchased from the National Hormone and Peptide Program (A. F. Parlow, Los Angeles, County Harbor—UCLA Medical Center, Torrance, Calif.).

Experiment [2] addresses T1, GHRH receptor. As to the kind of experiment: GHRH receptor binding, 125I-labeled JV-1-42 ligand competition, human pituitary membrane homogenates (Table 7). The settings on record: for IC50: 125I-labeled JV-1-42, human pituitary membranes. Here is the method:
Preparation of human pituitary membrane fraction and receptor binding of GHRH agonists were performed as previously described, by using a sensitive in vitro ligand competition assay based on binding of ^125I-labeled JV-1-42 to human pituitary membrane homogenates. Normal human pituitaries were purchased from the National Hormone and Peptide Program (A. F. Parlow, Los Angeles, County Harbor-UCLA Medical Center, Torrance, Calif.).

Experiment [3] concerns GH release. Briefly: In vivo GH release after subcutaneous administration. The note with it: rat, s.c. Here is the method:
Blood samples are taken from the jugular vein; 5, 15 and 30 minutes or only 15 and 30 minutes after the injection. The blood samples are centrifuged, plasma is removed and the GH level is measured by ELISA. The results are summarized in terms of potency in Table 9.

Entries after “also recorded” stand apart in the source; their conditions may differ. Square brackets hold non-standard residues; d marks the D form. Peptide text beside a SMILES is read from it. * marks the point of attachment. Phe(F5) = N[C@@H](Cc1c(F)c(F)c(F)c(F)c1F)C(=O)O; Desaminotyrosyl = O=C(CCc1ccc(O)cc1)*; NMeY = CN[C@@H](Cc1ccc(O)cc1)C(=O)O; Agmatine = N=C(N)NCCCCN*; Nle = CCCC[C@H](N)C(=O)O; Orn = NCCC[C@H](N)C(=O)O; Abu = CC[C@H](N)C(=O)O; Aoc = NCCCCCCCC(=O)O; GABA = NCCCC(=O)O

Usually IC50 stands for the midpoint of a concentration-inhibition curve. Low values mean greater potency, high ones weaker potency.

With `CCCC[C@H](NC(=O)[C@@H](NC(=O)[C@H](CC(=O)O)NC(=O)[C@H](CCC(N)=O)NC(=O)[C@H](CC(C)C)NC(=O)[C@H](CC(C)C)NC(=O)[C@H](CCCN)NC(=O)[C@H](CCCNC(=N)N)NC(=O)[C@H](C)NC(=O)[C@H](CO)NC(=O)[C@H](CC(C)C)NC(=O)[C@H](CCC(N)=O)NC(=O)[C@H](CC)NC(=O)[C@H](CC(C)C)NC(=O)[C@@H](NC(=O)[C@H](CCCN)NC(=O)[C@H](CCCNC(=N)N)NC(=O)[C@H](Cc1ccc(O)cc1)NC(=O)[C@H](CO)NC(=O)[C@H](CC(N)=O)NC(=O)[C@@H](NC(=O)[C@H](Cc1ccccc1)NC(=O)[C@@H](NC(=O)[C@H](C)NC(=O)[C@H](CC(=O)O)NC(=O)[C@H](C)NC(=O)CCc1ccc(O)cc1)[C@@H](C)CC)[C@@H](C)O)C(C)C)[C@@H](C)CC)C(=O)N[C@@H](CC(=O)O)C(=O)NCCCCNC(=N)N` [JI-34, reference compound] (Desaminotyrosyl-ADAIFTNSYR[Orn]VL[Abu]QLSAR[Orn]LLQDI[Nle]D-Agmatine; N-terminus and C-terminus assumed), in experiment [1], the IC50 stood at 1.37 nM.
On the same count and under the same terms, in the case of `CCCC[C@H](NC(=O)[C@@H](NC(=O)[C@H](CC(=O)O)NC(=O)[C@H](CCC(N)=O)NC(=O)[C@H](CC(C)C)NC(=O)[C@H](CC(C)C)NC(=O)[C@H](CCCN)NC(=O)[C@H](CCCNC(=N)N)NC(=O)[C@H](C)NC(=O)[C@H](CO)NC(=O)[C@H](CC(C)C)NC(=O)[C@H](CCC(N)=O)NC(=O)[C@H](CC)NC(=O)[C@H](CC(C)C)NC(=O)[C@@H](NC(=O)[C@H](CCCN)NC(=O)[C@H](CCCNC(=N)N)NC(=O)[C@H](Cc1ccc(O)cc1)NC(=O)[C@H](CO)NC(=O)[C@@H](NC(=O)[C@@H](NC(=O)[C@H](Cc1ccccc1)NC(=O)[C@@H](NC(=O)[C@H](C)NC(=O)[C@H](CC(=O)O)NC(=O)[C@H](C)NC(=O)CCc1ccc(O)cc1)[C@@H](C)CC)[C@@H](C)O)[C@@H](C)O)C(C)C)[C@@H](C)CC)C(=O)N[C@@H](CC(=O)O)C(=O)NCCCCNC(=N)N` [JI-36, reference compound] (Desaminotyrosyl-ADAIFTTSYR[Orn]VL[Abu]QLSAR[Orn]LLQDI[Nle]D-Agmatine; N-terminus and C-terminus assumed) it was 1.82 nM; in that of `CCCC[C@H](NC(=O)[C@@H](NC(=O)[C@H](CC(=O)O)NC(=O)[C@H](CCC(N)=O)NC(=O)[C@H](CC(C)C)NC(=O)[C@H](CC(C)C)NC(=O)[C@H](CCCN)NC(=O)[C@H](CCCNC(=N)N)NC(=O)[C@H](C)NC(=O)[C@H](CO)NC(=O)[C@H](CC(C)C)NC(=O)[C@H](CCC(N)=O)NC(=O)[C@H](CC)NC(=O)[C@H](CC(C)C)NC(=O)[C@@H](NC(=O)[C@H](CCCN)NC(=O)[C@H](CCCNC(=N)N)NC(=O)[C@H](Cc1ccc(O)cc1)NC(=O)[C@H](CO)NC(=O)[C@H](CCC(N)=O)NC(=O)[C@@H](NC(=O)[C@H](Cc1ccccc1)NC(=O)[C@@H](NC(=O)[C@H](C)NC(=O)[C@H](CC(=O)O)NC(=O)[C@@H](C)NC(=O)CCc1ccc(O)cc1)[C@@H](C)CC)[C@@H](C)O)C(C)C)[C@@H](C)CC)C(=O)N[C@@H](CC(=O)O)C(=O)N[C@@H](CCCNC(=N)N)C(=O)NCCCCCCCC(N)=O` [Peptide P-21304, [Dat^1, D-Ala^2, Gln^8, Orn^12, Abu^15, Orn^21, Nle^27, Asp^28, Amc^30]hGH-RH(1-30)NH2] (Desaminotyrosyl-[dA]DAIFTQSYR[Orn]VL[Abu]QLSAR[Orn]LLQDI[Nle]DR[Aoc]-NH2), 0.08 nM.
Consider `CCCC[C@H](NC(=O)[C@@H](NC(=O)[C@H](CC(=O)O)NC(=O)[C@H](CCC(N)=O)NC(=O)[C@H](CC(C)C)NC(=O)[C@H](CC(C)C)NC(=O)[C@H](CCCN)NC(=O)[C@H](CCCNC(=N)N)NC(=O)[C@H](C)NC(=O)[C@H](CO)NC(=O)[C@H](CC(C)C)NC(=O)[C@H](CCC(N)=O)NC(=O)[C@H](CC)NC(=O)[C@H](CC(C)C)NC(=O)[C@@H](NC(=O)[C@H](CCCN)NC(=O)[C@H](CCCNC(=N)N)NC(=O)[C@H](Cc1ccc(O)cc1)NC(=O)[C@H](CO)NC(=O)[C@H](CC(N)=O)NC(=O)[C@@H](NC(=O)[C@H](Cc1ccccc1)NC(=O)[C@@H](NC(=O)[C@H](C)NC(=O)[C@H](CC(=O)O)NC(=O)[C@@H](C)NC(=O)[C@H](Cc1ccc(O)cc1)NC)[C@@H](C)CC)[C@@H](C)O)C(C)C)[C@@H](C)CC)C(=O)N[C@@H](CO)C(=O)N[C@@H](CCCNC(=N)N)C(=O)NCCCC(N)=O` [Peptide P-25501, [N—Me-Tyr^1, D-Ala^2, Orn^12, Abu^15, Orn^21, Nle^27, Gab^30]hGH-RH(1-30)NH2] (H-[NMeY][dA]DAIFTNSYR[Orn]VL[Abu]QLSAR[Orn]LLQDI[Nle]SR[GABA]-NH2), for which the IC50 in experiment [2] turned out to be 1.07 nM. The “GH response after subcutaneous administration (in words)” value (“GH response” below) in experiment [3] is given as “unusually high responses; also recorded: especially greater growth hormone levels than hGH-RH or JI-38”.
`CCCC[C@H](NC(=O)[C@@H](NC(=O)[C@H](CC(=O)O)NC(=O)[C@H](CCC(N)=O)NC(=O)[C@H](CC(C)C)NC(=O)[C@H](CC(C)C)NC(=O)[C@H](CCCN)NC(=O)[C@H](CCCNC(=N)N)NC(=O)[C@H](C)NC(=O)[C@H](CO)NC(=O)[C@H](CC(C)C)NC(=O)[C@H](CCC(N)=O)NC(=O)[C@H](CC)NC(=O)[C@H](CC(C)C)NC(=O)[C@@H](NC(=O)[C@H](CCCN)NC(=O)[C@H](CCCNC(=N)N)NC(=O)[C@H](Cc1ccc(O)cc1)NC(=O)[C@H](CO)NC(=O)[C@H](CC(N)=O)NC(=O)[C@@H](NC(=O)[C@H](Cc1c(F)c(F)c(F)c(F)c1F)NC(=O)[C@@H](NC(=O)[C@H](C)NC(=O)[C@H](CC(=O)O)NC(=O)[C@@H](C)NC(=O)[C@H](Cc1ccc(O)cc1)NC)[C@@H](C)CC)[C@@H](C)O)C(C)C)[C@@H](C)CC)C(=O)N[C@@H](CC(=O)O)C(=O)N[C@@H](CCCNC(=N)N)C(=O)NC` [Peptide P-27404, [N—Me-Tyr^1, D-Ala^2, Fpa5^6, Orn^12, Abu^15, Orn^21, Nle^27, Asp^28]hGH-RH(1-29)NH—CH3] (H-[NMeY][dA]DAI[Phe(F5)]TNSYR[Orn]VL[Abu]QLSAR[Orn]LLQDI[Nle]DR-NHMe) gave an IC50 in experiment [2] of 0.87 nM. The “Relative affinity (Binding potency) vs JI-38” value in experiment [2] (relative to JI-38 = 1) came to 5.00. Besides, the “GH response” value in experiment [3] is recorded as “unusually high responses; also recorded: especially greater growth hormone levels than hGH-RH or JI-38”.
As for `CCCC[C@H](NC(=O)[C@@H](NC(=O)[C@H](CC(=O)O)NC(=O)[C@H](CCC(N)=O)NC(=O)[C@H](CC(C)C)NC(=O)[C@H](CC(C)C)NC(=O)[C@H](CCCN)NC(=O)[C@H](CCCNC(=N)N)NC(=O)[C@H](C)NC(=O)[C@H](CO)NC(=O)[C@H](CC(C)C)NC(=O)[C@H](CCC(N)=O)NC(=O)[C@H](CC)NC(=O)[C@H](CC(C)C)NC(=O)[C@@H](NC(=O)[C@H](CCCN)NC(=O)[C@H](CCCNC(=N)N)NC(=O)[C@H](Cc1ccc(O)cc1)NC(=O)[C@H](CO)NC(=O)[C@H](CC(N)=O)NC(=O)[C@@H](NC(=O)[C@H](Cc1ccccc1)NC(=O)[C@@H](NC(=O)[C@H](C)NC(=O)[C@H](CC(=O)O)NC(=O)[C@@H](C)NC(=O)[C@H](Cc1ccc(O)cc1)NC)[C@@H](C)CC)[C@@H](C)O)C(C)C)[C@@H](C)CC)C(=O)N[C@@H](CC(=O)O)C(=O)N[C@@H](CCCNC(=N)N)C(=O)NC` [Peptide P-27409, [N—Me-Tyr^1, D-Ala^2, Orn^12, Abu^15, Orn^21, Nle^27, Asp^28]hGH-RH(1-29)NH—CH3] (H-[NMeY][dA]DAIFTNSYR[Orn]VL[Abu]QLSAR[Orn]LLQDI[Nle]DR-NHMe), the IC50 in experiment [2] amounted to 1.06 nM. Besides, the “GH response” value in experiment [3] is “unusually high responses; also recorded: especially greater growth hormone levels than hGH-RH or JI-38”.
